Measured values taken from patent publication US20220023274A1, “USE OF A BERBERIS AND RESVERATROL MIXTURE TO CONTROL DYSLIPIDEMIA” (priority 2018, published 2022).

How the values were obtained:
[1] = tested on: Low-Density lipoprotein Receptor (LDL-R); assay: Transcriptional expression of the LDL receptor in hepatocytes in vitro (Example 1, FIG. 1); assay type: cell-based; conditions: 24 hours, Berberine 5 μg/mL, Resveratrol 3 μM, each applied alone, vs CTRL (no treatments)
From the text: It could be said that the concentration tested is bio-equivalent to that of Berberine with a concentration of 50% higher than that administered according to the work of Kong et to 2004. (Kong W, Wei J, Abidi P, Lin M, Inaba S, Li C, Wang Y, Wang Z, Si S, Pan H, 10 Wang S, Wu J, Wang Y, Li Z, Liu J, Jiang J D. Berberine is a novel cholesterol-lowering drug working through a unique mechanism distinct from statins. Nat Med. 2004 December; 10(12):1344-51)).
Resveratrol being without effect alone is therefore a synergy, never observed before. The innovation is therefore in having observed a synergy between resveratrol and berberine with resveratrol which enhances the effects of berberine in the expression of LDL-R. The results are summarized in FIG. 1.

plasma LDL concentration = assay: Case reports of subjects (n=4): plasma LDL concentration, reduction compared to nontreated condition (FIG. 2); assay type: in vivo, human; conditions: n=4 subjects; berberine 500 mg alone or with 48 mg resveratrol (pure, or as 160 mg REVIFAST)
From the text: Information were also collected from case reports of a number of subjects supplemented in their diet substantially as above.
As it can be seen, when the subjects are supplemented with berberine the levels of LDL cholesterol were reduced. […] It is therefore believed that it is the way in which resveratrol is absorbed that influences the synergistic action of resveratrol to reduce LDL cholesterol by berberine.

LDL cholesterol = assay: Case report: LDL cholesterol level under dietary supplementation (Example 9); assay type: in vivo, human; conditions: The patient, initial LDL cholesterol 3.91 mM; berberine 500 mg for 1 month; Revifast dosage as in examples 2-5
Protocol: […] The patient is […] and is classified borderline for the lipid profile with an LDL cholesterol level of 3.91 mM. In their dietary supplement scheme, they took a berberine 500 mg supplement separately for 1 month, taking lipoprotein levels to 3.4 mM. […] The quantities assumed by […] FG are such that the dosage used is that shown in examples 2-5.

| Compound | transcription of the LDL receptor (effect in words) [1] | effect on plasma LDL cholesterol (in words) (plasma LDL concentration) | LDL cholesterol level (plasma concentration) (LDL cholesterol) |
| --- | --- | --- | --- |
| COc1ccc2cc3[n+](cc2c1OC)CCc1cc2c(cc1-3)OCO2 [Berberine] | tends to increase | reduced | 3.4 mM |
| Oc1ccc(C=Cc2cc(O)cc(O)c2)cc1 [resveratrol, 3,5,4′-trihydroxystilbene] | no apparent effect | – | – |
